Results published in PubChem BioAssay (NCI).
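Cells were grown in 96-well plates and exposed to each compound for 48 hours at five concentrations; endpoints were interpolated linearly between bracketing concentrations, or set to the highest concentration if not reached. GI50 = concentration required for 50% inhibition of growth. TGI is the concentration that stops growth completely.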

How the values were obtained:
Assay in all cases: inhibition of tumour cell growth, NCI panel, 48 h
[1] = system: LOX IMVI melanoma
[2] = system: HOP-92 NSCLC
[3] = system: COLO 205 colon
[4] = system: CAKI-1 renal
[5] = system: UACC-257 melanoma
[6] = system: SK-MEL-2 melanoma
[7] = system: SF-268 CNS
[8] = system: DU-145 prostate
[9] = system: CCRF-CEM leukemia
[10] = system: ACHN renal
[11] = system: HT29 colon
[12] = system: IGROV1 ovarian
[13] = system: MCF7 breast
[14] = system: A549 NSCLC
[15] = system: MDA-MB-231 breast
[16] = system: OVCAR-5 ovarian
[17] = system: MOLT-4 leukemia
[18] = system: NCI/ADR-RES ovarian
[19] = system: TK-10 renal
[20] = system: HL-60(TB) leukemia
[21] = system: MDA-MB-435
[22] = system: SR leukemia
[23] = system: RPMI-8226 leukemia
[24] = system: NCI-H460 lung
[25] = system: BT-549 breast
[26] = system: NCI-H23 lung
[27] = system: SF-295 CNS
[28] = system: HCT-116 colon
[29] = system: EKVX NSCLC
[30] = system: RXF 393 renal
[31] = system: HCC-2998 colon
[32] = system: HOP-62 NSCLC
[33] = system: NCI-H522 lung
[34] = system: 786-0 renal
[35] = system: UACC-62 melanoma
[36] = system: T-47D breast
[37] = system: A498 renal
[38] = system: M14 melanoma
[39] = system: SNB-19 CNS
[40] = system: HS 578T breast
[41] = system: OVCAR-3 ovarian
[42] = system: HCT-15 colon
[43] = system: SW-620 colon
[44] = system: NCI-H226 lung
[45] = system: SK-MEL-28 melanoma
[46] = system: PC-3 prostate
[47] = system: K-562 leukemia
[48] = system: OVCAR-4 ovarian
[49] = system: MALME-3M melanoma
[50] = system: KM12 colon
[51] = system: UO-31 renal
[52] = system: SK-OV-3 ovarian
[53] = system: SN12C renal
[54] = system: SK-MEL-5 melanoma
[55] = system: U251 CNS
[56] = system: OVCAR-8 ovarian
[57] = system: SNB-75 CNS
[58] = system: SF-539 CNS

Cc1[nH]c(C(=O)Nc2ccc(S(=O)(=O)N3CCCCC3)cc2OCCOCCOCCOCCOCCOCCOCCOCCOCCOc2cc(S(=O)(=O)N3CCCCC3)ccc2NC(=O)c2[nH]c(C)c3c2CCCCC3=O)c2c1C(=O)CCCC2
GI50 [1]: 0.169 µM
TGI [1]: 0.639 µM
GI50 [2]: 0.433 µM
TGI [2]: > 100 µM
GI50 [3]: 1.17 µM
TGI [3]: > 100 µM
GI50 [4]: 0.841 µM
TGI [4]: > 100 µM
GI50 [5]: 0.944 µM
GI50 [6]: 0.768 µM
GI50 [7]: 2.29 µM
TGI [7]: > 100 µM
GI50 [8]: 4.99 µM
TGI [8]: > 100 µM
GI50 [9]: 1.29 µM
TGI [9]: > 100 µM
GI50 [10]: 17.4 µM
TGI [10]: > 100 µM
GI50 [11]: 0.648 µM
TGI [11]: > 19.8 µM
GI50 [12]: 0.48 µM
GI50 [13]: 0.095 µM
TGI [13]: > 100 µM
GI50 [14]: 2.39 µM
TGI [14]: > 100 µM
GI50 [15]: 0.776 µM
TGI [15]: > 100 µM
GI50 [16]: 3.26 µM
TGI [16]: > 100 µM
GI50 [17]: 0.861 µM
TGI [17]: > 32.8 µM
GI50 [18]: > 100 µM
TGI [18]: > 100 µM
GI50 [19]: 2.05 µM
TGI [19]: > 100 µM
GI50 [20]: 0.108 µM
GI50 [21]: 0.766 µM
TGI [21]: > 100 µM
GI50 [22]: 0.107 µM
TGI [22]: > 32.5 µM
GI50 [23]: 0.325 µM
GI50 [24]: 1.77 µM
TGI [24]: > 100 µM
GI50 [25]: 0.911 µM
TGI [25]: > 100 µM
GI50 [26]: 2.38 µM
TGI [26]: > 100 µM
GI50 [27]: 2.83 µM
TGI [27]: > 100 µM
GI50 [28]: 0.538 µM
TGI [28]: 4.41 µM
GI50 [29]: 2.97 µM
TGI [29]: > 100 µM
GI50 [30]: 1.26 µM
TGI [30]: > 100 µM
GI50 [31]: 0.296 µM
TGI [31]: 1.12 µM
GI50 [32]: 1.11 µM
TGI [32]: > 100 µM
GI50 [33]: 0.19 µM
TGI [33]: 1.21 µM
GI50 [34]: 1.69 µM
TGI [34]: > 100 µM
GI50 [35]: 0.461 µM
TGI [35]: 3.71 µM
GI50 [36]: 0.489 µM
TGI [36]: > 100 µM
GI50 [37]: 1.21 µM
GI50 [38]: 1.01 µM
TGI [38]: > 100 µM
GI50 [39]: 1.02 µM
TGI [39]: > 100 µM
GI50 [40]: 0.375 µM
TGI [40]: > 21.9 µM
GI50 [41]: 0.483 µM
GI50 [42]: 12.9 µM
TGI [42]: > 100 µM
GI50 [43]: 2.05 µM
TGI [43]: > 100 µM
GI50 [44]: 0.542 µM
TGI [44]: 8.73 µM
GI50 [45]: 1.59 µM
TGI [45]: > 100 µM
GI50 [46]: 1.09 µM
TGI [46]: > 100 µM
GI50 [47]: 0.435 µM
TGI [47]: > 100 µM
GI50 [48]: 0.909 µM
TGI [48]: > 29.7 µM
GI50 [49]: 0.909 µM
TGI [49]: > 23.5 µM
GI50 [50]: 1.68 µM
TGI [50]: > 100 µM
GI50 [51]: 4.83 µM
TGI [51]: > 100 µM
GI50 [52]: 0.286 µM
TGI [52]: 0.806 µM
GI50 [53]: 1.48 µM
TGI [53]: > 100 µM
GI50 [54]: 3.92 µM
TGI [54]: > 89.8 µM
GI50 [55]: 1.4 µM
TGI [55]: > 100 µM
GI50 [56]: 1.67 µM
TGI [56]: > 100 µM
GI50 [57]: 0.0788 µM
TGI [57]: 1.18 µM
GI50 [58]: 0.599 µM
TGI [58]: > 100 µM
